Entries after “also recorded” stand apart in the source; their conditions may differ.
What was measured:
E. coli = experiment: Murine E. coli peritonitis: leukocyte counts, resolution indices, in vivo phagocytosis; design: species or system mouse; details: for leukocyte phagocytosis of E. coli in vivo: co-administration of SCI and SCII 50 ng each, i.p.; for resolution of infections in mice: co-administration of equal amounts of SCI and SCII
Procedure: Murine Peritonitis: Mouse experiments were conducted in accordance with guidelines from Harvard Medical Area Standing Committee on Animals (protocol no. 02570). Mice were inoculated with E. coli (serotype 06:K2:H1) as in (11) and peritoneal exudates were collected by lavaging the peritoneal cavity with 4 ml of PBS (without calcium and magnesium) at the indicated intervals. Leukocytes were enumerated by light microscopy using nuclear morphology staining with Turks solution and flow cytometry probing for CD11b-PerCP/Cy5.5 (eBioscience, clone: M1/70), F4/80-PE (eBioscience, BM8) and Ly6G-FITC (eBioscience, clone: 1A8) as in (11). For product isolation, 24 h peritoneal exudates were collected and 2 volumes of ice-cold methanol were added. Isolates were obtained as detailed in the lipid mediator metabotolipidomics section.
In select experiments 12 h after E. coli inoculation, mice were administered either 100 ng of SCI and SCII (50 ng/each per mouse) or vehicle (saline containing 0.1% ethanol (EtOH)) via i.p. injection. Peritoneal exudates were then collected and leukocyte counts determined as above. Assessment of leukocyte phagocytosis of E. coli in inflammatory exudates was conducted as in (11). Briefly cells were incubated with anti-CD11b-Per(T/Cy5.5 conjugated antibody; subsequently the cells were permeabilized using BD Cytofix/Cytoperm™ Fixation/Permeabilization Kit following manufacturer's instructions; cells were then incubated with a FITC conjugated anti-E. coli antibody (GTX40856; GeneTex) and phagocytosis assessed as mean fluorescence in the CD11b- positive cell population.
Resolution indices were calculated as in (11) where Ψmax=the maximal PMN numbers in the exudates; Tmax=the time point when PMN numbers reach maximum; R50=50% of maximal PMN numbers; T50=the time point when PMN numbers reduce to 50% of maximum; Ri (resolution interval)=T50−Tmax, the time period when 50% PMN are lost from the exudates.

Human macrophages [1] = experiment: Human macrophage efferocytosis of apoptotic PMN; format: cell-based; details: 10 pM-100 nM, 15 min, then apoptotic PMN 45 min; planarian isolates likewise
Procedure: (§1) Leukocyte phagocytosis: Macrophages were prepared from peripheral blood mononuclear cells (PBMC) purchased from Children's Hospital Blood Bank, Boston, and phagocytosis was assessed as in (11). Briefly, macrophages (5×10^4 cells,/well) were incubated with SCI (10 pM-100 nM), SCII (10 pM-100 nM), MaR1 (10 pM-100 nM), or vehicle (0.1% EtOH in DPBS) for 15 min at 37° C., then fluorescent labeled apoptotic cells were added and cells incubated 45 min at 37° C. Extracellular fluorescence was quenched using Trypan blue (1:15 dilution) and phagocytosis assessed using an M3 SpectraMax plate reader. In select experiments, macrophages (5×10^4 cells/well) or neutrophils (1×10^5 cells/well) were obtained from human healthy volunteers' peripheral blood as in (11) in accordance with Partners Human Research Committee Protocol (#1999P001297), and incubated with H2DCFDA (5 μM, 30 min, 37° C.), then with SCI (10 pM-100 nM), SCI (10 pM-100 nM) or vehicle (0.1% EtOH in DPBS, 15 min, 37° C.) and E. coli (1:50 leukocytes to E. coli, 45 min, 37° C.) Intracellular reactive oxygen species were determined by measuring fluorescence using an M3 SpectraMax plate reader. To assess bacterial phagocytosis, macrophages (5×10^4 cells/well) or neutrophils (1×10^5 cells/well) were incubated with SCI (10 pM-100 nM), SCII (10 pM-100 nM) or vehicle (0.1% EtOH in DPBS, 15 min, 37° C.), then incubated with BacLight Green (Molecular Probes) labeled E. coli (1:50 leukocytes to E. coli, 45 min, 37° C.), Extracellular fluorescence was quenched using Trypan blue (1:15 dilution), and phagocytosis assessed using an M3 SpectraMax plate reader.
In determined experiments, human macrophages were incubated with SC isolates from regenerating planaria for 15 min at 37° C., then fluorescent labeled apoptotic cells were added and efferocytosis was assessed as detailed above.
Macrophage bacterial phagocytosis, efferocytosis, and phagolysosontal acidification: Human macrophages were plated in 96-well plates (5×10^4 cells per well) for 24 h, and phagocytosis or efferocytosis was assessed as in (14). In brief, apoptotic PMNs were obtained by culturing cells overnight in PBS^−/− (5×10^6 cells/ml). Apoptotic human PMNs were labeled with bisbenzimide H33342 trihydrochloride (Sigma-Aldrich). Human macrophages were incubated with 0.1-10 nM concentration of test products, and then labeled apoptotic PMNs were cocultured with macrophages for 40 min [37° C. […]]. Fluorescence was read on a SpectraMax M3 plate reader (Molecular Devices, Sunnyvale, Calif., USA), and results were analyzed using SoftMax Pro (Molecular Devices).

Human macrophages [2] = experiment: Human macrophage intracellular reactive oxygen species (H2DCFDA); format: cell-based; details: 10 pM-100 nM, 15 min, then E. coli 45 min
Procedure: as §1, with “To assess bacterial phagocytosis, macrophages (5×10^4 cells/well) or neutrophils (1×10^5 cells/well) were incubated with SCI (10 pM-100 nM), SCII (10 pM-100 nM) or vehicle (0.1% EtOH in DPBS, 15 min, 37° C.), then incubated with BacLight Green (Molecular Probes) labeled E. coli (1:50 leukocytes to E. coli, 45 min, 37° C.), Extracellular fluorescence was quenched using Trypan blue (1:15 dilution), and phagocytosis assessed using an M3 SpectraMax plate reader.” left out

Human neutrophils = experiment: Human neutrophil intracellular reactive oxygen species (H2DCFDA); format: cell-based; details: 10 pM-100 nM, 15 min, then E. coli 45 min
Procedure: as §1, with “To assess bacterial phagocytosis, macrophages (5×10^4 cells/well) or neutrophils (1×10^5 cells/well) were incubated with SCI (10 pM-100 nM), SCII (10 pM-100 nM) or vehicle (0.1% EtOH in DPBS, 15 min, 37° C.), then incubated with BacLight Green (Molecular Probes) labeled E. coli (1:50 leukocytes to E. coli, 45 min, 37° C.), Extracellular fluorescence was quenched using Trypan blue (1:15 dilution), and phagocytosis assessed using an M3 SpectraMax plate reader.” left out

[3] = test system: Mice (hind-limb ischemia/reperfusion); experiment: Hind-limb ischemia reperfusion, second organ reflow injury; format: in vivo, mouse; details: for protection from leukocyte-mediated tissue damage: SCI (50 ng) plus SCII (50 ng) i.v. 10 min prior to reperfusion, lung H&E; for Ki67 and RSPO3 in lung sections (immunofluorescence), tissue repair / plasma eicosanoid levels, including LTB4, LTC4 and TxB2: SCI plus SCII 50 ng each i.v.
Procedure: Ischemia Reperfusion: Mice were anesthetized by intraperitoneal (i.p.) injection of […]. To initiate hind-limb ischemia, tourniquets consisting of a rubber band were placed on each hind limb. Ten min prior to the initiation of reperfusion, Vehicle (saline containing 0.1% EtOH), SCI (50 ng) plus SCII (50 ng) or Resolvin D1 (500 ng) were administered by intravenous injection. At the end of reperfusion (3 h), mice were euthanized, blood collected via cardiac puncture and plasma isolated for lipid mediator metabololipidomics. Lungs were harvested, left lungs were frozen in liquid nitrogen and stored at −80° C. Right lungs were stored in 10% (v/v) buffered formalin and processed for histology and hematoxylin and eosin (H&E) staining by the Children's Hospital Boston Core Histology Facility, imaged using a Keyence BZ-9000 microscope and BZ II imaging software (Keyence) Expression of Ki67 and Roof plate-specific Spondin-3 (RSPO3) were assessed by immunofluorescence staining. Briefly, sections were deparafinized in xylene and rehydrated, then blocked in 10% horse serum and stained with either rat anti-mouse RSPON3 antibody (R&D Systems) for 1 h at room temperature and then with sheep anti-rat Alexa-594 conjugated antibody (BioLegend), or with rabbit anti-mouse antibody (Abeam) and then with donkey anti-rabbit Alexa-488 antibody (BioLegend). Slides were mounted in Vector Shield mounting solution with DAPI (Vector Labs) and immunofluorescence assessed using a Zeiss LSM 510 Meta confocal microscope. Images were processed using ImageJ software (National Institutes of Health) and Adobe Photoshop CS6 (Adobe Systems incorporated) software. Frozen lungs were gently dispersed, centrifuged, and tissue myeloperoxidase (MPO) levels were determined using mouse MPO ELISA (R&D Systems).

Compound	leukocyte phagocytosis of E. coli in vivo (E. coli)	resolution of infections in mice (E. coli)	macrophage efferocytosis of apoptotic cells (Human macrophages [1])	macrophage intracellular reactive oxygen species (Human macrophages [2])	neutrophil intracellular reactive oxygen species (Human neutrophils)	protection from leukocyte-mediated tissue damage [3]	Ki67 and RSPO3 in lung sections (immunofluorescence), tissue repair [3]	plasma eicosanoid levels, including LTB4, LTC4 and TxB2 [3]
CCC=CCC=CCC(O)C(C=CC=CC=CCC=CCCC(=O)O)SCC(N)C(=O)NCC(=O)O (stereo not shown) [SCII, 13-cysteinylglycinyl, 14-hydroxy-docosahexaenoic acid]	Stimulates mouse	Promotes resolution of	dose-dependently increased; also recorded: Stimulates human	enhanced	enhanced	Protects from neutrophil	Promotes tissue repair	Reduces systemic
13-glutathionyl, 14-hydroxy-docosahexaenoic acid [SCI]	Stimulates mouse	Promotes resolution of	dose-dependently increased; also recorded: Stimulates human	enhanced; also recorded: Stimulates human	enhanced; also recorded: Stimulates human	Protects from neutrophil	Promotes tissue repair	Reduces systemic
